Measured values: US9409881B2, “Herbicidally active 6′-phenyl-2,2′-bipyridine-3-carboxylic acid derivatives” (BAYER CROPSCIENCE AG, priority 2012, dated 2016)

COC(=O)c1cccnc1-c1cccc(-c2ccc(Cl)cc2)n1 [Chemical Example 2, Methyl 6′-(4-chlorophenyl)-2,2′-bipyridine-3-carboxylate]
melting point: 120.5 °C

O=C(O)c1cccnc1-c1cccc(-c2ccc(Cl)cc2)n1 [Chemical Example 3, 6′-(4-Chlorophenyl)-2,2′-bipyridine-3-carboxylic acid]
melting point: 221 °C
